# Results reported in ChEMBL document CHEMBL1159250, “A novel phorbol ester from Excoecaria agallocha” (J Nat Prod, 1995).
# Key:
# H9 = assay: Cytotoxicity in human H9 cells upto 2 uM; type: cell-based
# Protein kinase C (PKC) = assay: Displacement of [3H]PDBu from rat brain membrane PKC; type: tissue-based
# [1] = tested on: Human immunodeficiency virus 1; assay: Inhibition of HIV1 replication in human H9 cells assessed as inhibition of supernatant reverse transcriptase and p24 level; type: functional, organism-based; conditions: Human immunodeficiency virus 1, H9
smiles,measurement,setting,value
CCCC/C=C/C=C/CC(=O)O[C@@]12C[C@H](C)[C@@]3(O)[C@@H](C=C(CO)C[C@]4(O)C(=O)C(C)=C[C@@H]34)[C@@H]1C2(C)C,Activity,H9,Non-toxic
same,IC50,Protein kinase C (PKC),17 nM
same,IC50,[1],6 nM
